From patent US20240360151A1 (SANOFI, priority 2023, published 2024)
pIC50: −log10 of the molar value.

target: T1, NLRP3 inflammasome (Homo sapiens, UniProt Q96P20); experiment: IL-1β secretion assay (NLRP3 IC50) in LPS-primed, nigericin-activated THP-1 cells, HTRF; assay type: cell-based; settings: monocytic THP-1 cells; LPS 10 ng/mL 3 h priming, then compound + nigericin 10 μM 2 h; relative IC50, 10 concentrations, geometric mean
T1 construct: endogenous in cells; host or cells: THP-1 monocytic cells
T1 sequence (Q96P20 whole entry): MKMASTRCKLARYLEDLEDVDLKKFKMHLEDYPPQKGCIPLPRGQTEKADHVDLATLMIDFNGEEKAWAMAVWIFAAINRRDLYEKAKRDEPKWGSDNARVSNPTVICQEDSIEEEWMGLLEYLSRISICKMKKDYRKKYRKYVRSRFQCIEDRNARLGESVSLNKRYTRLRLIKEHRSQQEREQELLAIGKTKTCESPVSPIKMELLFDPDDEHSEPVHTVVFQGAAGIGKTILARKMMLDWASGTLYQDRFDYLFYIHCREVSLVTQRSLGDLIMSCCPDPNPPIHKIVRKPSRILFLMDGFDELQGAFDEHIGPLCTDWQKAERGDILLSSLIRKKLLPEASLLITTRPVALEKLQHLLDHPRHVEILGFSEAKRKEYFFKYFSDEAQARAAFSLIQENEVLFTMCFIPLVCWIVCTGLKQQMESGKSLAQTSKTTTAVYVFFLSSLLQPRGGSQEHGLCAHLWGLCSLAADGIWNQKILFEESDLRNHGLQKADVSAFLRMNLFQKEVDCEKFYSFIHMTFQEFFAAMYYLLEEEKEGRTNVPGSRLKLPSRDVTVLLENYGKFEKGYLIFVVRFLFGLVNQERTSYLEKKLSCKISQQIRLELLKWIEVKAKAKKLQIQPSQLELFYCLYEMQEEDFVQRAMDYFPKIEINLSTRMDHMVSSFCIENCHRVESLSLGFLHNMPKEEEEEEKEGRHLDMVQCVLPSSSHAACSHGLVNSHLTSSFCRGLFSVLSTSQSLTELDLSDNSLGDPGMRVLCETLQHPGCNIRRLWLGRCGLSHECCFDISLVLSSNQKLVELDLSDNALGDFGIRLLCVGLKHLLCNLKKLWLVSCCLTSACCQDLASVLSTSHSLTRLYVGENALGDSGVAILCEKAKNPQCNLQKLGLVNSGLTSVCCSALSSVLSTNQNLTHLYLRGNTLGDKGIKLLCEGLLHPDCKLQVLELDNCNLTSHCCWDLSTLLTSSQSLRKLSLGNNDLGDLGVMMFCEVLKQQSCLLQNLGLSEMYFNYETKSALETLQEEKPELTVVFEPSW
Summary of the method: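 IL-1β in supernatant read by HTRF after 2 h co-incubation of compound (0.1% DMSO, 10 concentrations, 1:3 series) with nigericin at 10 μM final, following 3 h LPS (10 ng/mL) priming of THP-1 monocytes at 37° C. Inhibition normalised to unactivated and no-compound controls; geometric-mean relative IC50 from 4-parameter logistic model.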

SMILES	pIC50
Cc1cc(C)c(-c2ccc(N3C[C@@H]4NCCO[C@H]4C3)nn2)c(O)c1 [Example 185, 2-[6-[(4aS,7aS)-3,4,4a,5,7,7a-hexahydro-2H-pyrrolo[3,4-b][1,4]oxazin-6-yl]pyridazin-3-yl]-3,5-dimethylphenol]	5.49
Cc1cc(C)c(-c2nnc(N3CCO[C@H](CO)C3)cc2CO)c(O)c1 [Example 186, 2-[4-(hydroxymethyl)-6-[(2S)-2-(hydroxymethyl)morpholin-4-yl]pyridazin-3-yl]-3,5-dimethyl-phenol]	5.98
Cc1ccc(O)c(-c2ccc(N3CCO[C@H](CO)C3)nn2)c1C [Example 191, 2-[6-[(2S)-2-(hydroxymethyl)morpholin-4-yl]pyridazin-3-yl]-3,4-dimethylphenol]	5.95
CCN1CCOCC2(C1)CN(c1ccc(-c3c(C)cc(C)cc3O)nn1)CCO2 (centres unmarked) [Example 208, 2-[6-(8-ethyl-1,11-dioxa-4,8-diazaspiro[5.6]dodecan-4-yl)pyridazin-3-yl]-3,5-dimethylphenol]	6.01
CCN1CCN(c2ccc(-c3c(C)cc(C)cc3O)nn2)CC12CCOC2 (centres unmarked) [Example 227, 2-[6-(6-ethyl-2-oxa-6,9-diazaspiro[4.5]decan-9-yl)pyridazin-3-yl]-3,5-dimethylphenol]	5.92
Cc1cc(C(F)(F)F)cc(O)c1-c1ccc(N2CC[C@H](O)CC2=O)nn1 [Example 286, (4S)-4-hydroxy-1-[6-[2-hydroxy-6-methyl-4-(trifluoromethyl)phenyl]pyridazin-3-yl]piperidin-2-one]	6.82
Cc1cc(C(F)(F)F)cc(O)c1-c1ccc(N2CC[C@@H](CO)CC2=O)nn1 [Example 292, (4R)-4-(hydroxymethyl)-1-[6-[2-hydroxy-6-methyl-4-(trifluoromethyl)phenyl]pyridazin-3-yl]piperidin-2-one]	6.58
Cc1ccc(-c2nnc(N3CCO[C@H]4CCN(C)C[C@H]43)cc2C(F)F)c(O)c1 [Example 306, 2-[6-[(4aR,8aS)-6-methyl-3,4a,5,7,8,8a-hexahydro-2H-pyrido[4,3-b][1,4]oxazin-4-yl]-4-(difluoromethyl)pyridazin-3-yl]-5-methyl-phenol]	5.82
Cc1cc(Cl)cc(O)c1-c1ccc(N2CCO[C@@H]3CCNC[C@@H]32)nn1 [Example 309, 2-[6-[(4aS,8aR)-2,3,4a,5,6,7,8,8a-octahydropyrido[4,3-b][1,4]oxazin-4-yl]pyridazin-3-yl]-5-chloro-3-methyl-phenol]	6.60
Cc1cc(C(F)(F)F)cc(O)c1-c1ccc(N2CC[C@@H](O)CC2=O)nn1 [Example 316, (4R)-4-hydroxy-1-[6-[2-hydroxy-6-methyl-4-(trifluoromethyl)phenyl]pyridazin-3-yl]piperidin-2-one]	6.54
CCN1CCOC2(COCCN(c3ccc(-c4c(C)cc(C)cc4O)nn3)C2)C1 (centres unmarked) [Example 317, 2-[6-(4-ethyl-1,11-dioxa-4,8-diazaspiro[5.6]dodecan-8-yl)pyridazin-3-yl]-3,5-dimethyl-phenol]	5.52
Cc1cc(Cl)cc(O)c1-c1ccc(N2CCO[C@H](CF)C2)nn1 [Example 339, 5-chloro-2-[6-[(2S)-2-(fluoromethyl)morpholin-4-yl]pyridazin-3-yl]-3-methyl-phenol]	6.88
CCN1CC[C@H]2OCCN(c3ccc(-c4c(C)cc(C(F)(F)F)cc4O)nn3)[C@@H]2C1 [Example 344, 2-[6-[(4aR,8aR)-6-ethyl-3,4a,5,7,8,8a-hexahydro-2H-pyrido[4,3-b][1,4]oxazin-4-yl]pyridazin-3-yl]-3-methyl-5-(trifluoromethyl)phenol]	6.65
OC[C@@H]1CN(c2cc(C(F)F)c(-c3ccc4c(c3O)CCC4)nn2)CCO1 [Example 345, 5-[4-(difluoromethyl)-6-[(2S)-2-(hydroxymethyl)morpholin-4-yl]pyridazin-3-yl]indan-4-ol]	6.90
CN1CC[C@H]2OCCN(c3cc(C(F)F)c(-c4cccc(F)c4O)nn3)[C@H]2C1 [Example 351, 2-[6-[(4aS,8aR)-6-methyl-3,4a,5,7,8,8a-hexahydro-2H-pyrido[4,3-b][1,4]oxazin-4-yl]-4-(difluoromethyl)pyridazin-3-yl]-6-fluoro-phenol]	6.78
Cc1cc(C)c(-c2ccc(N3CCO[C@@H]4CCN(CC(F)(F)F)C[C@@H]43)nn2)c(O)c1 [Example 355, 2-[6-[(4aS,8aR)-6-(2,2,2-trifluoroethyl)-3,4a,5,7,8,8a-hexahydro-2H-pyrido[4,3-b][1,4]oxazin-4-yl]pyridazin-3-yl]-3,5-dimethyl-phenol]	5.93
Cc1cc(C(F)(F)F)cc(O)c1-c1ccc(N2CCOc3c[nH]nc32)nn1 [Example 360, 2-[6-(5,6-dihydro-2H-pyrazolo[4,3-b][1,4]oxazin-7-yl)pyridazin-3-yl]-3-methyl-5-(trifluoromethyl)phenol]	6.38
CC(=O)N1CC[C@H]2CCN(c3ccc(-c4c(C)cc(C(F)(F)F)cc4O)nn3)[C@H]2C1 [Example 369, 1-[(3aR,7aR)-1-[6-[2-hydroxy-6-methyl-4-(trifluoromethyl)phenyl]pyridazin-3-yl]-3,3a,4,5,7,7a-hexahydro-2H-pyrrolo[2,3-c]pyridin-6-yl]ethanone]	6.32
CC(=O)N1CC[C@@H]2CCN(c3ccc(-c4c(C)cc(C(F)(F)F)cc4O)nn3)[C@@H]2C1 [Example 370, 1-[(3aS,7aS)-1-[6-[2-hydroxy-6-methyl-4-(trifluoromethyl)phenyl]pyridazin-3-yl]-3,3a,4,5,7,7a-hexahydro-2H-pyrrolo[2,3-c]pyridin-6-yl]ethanone]	5.90
CC(=O)N1CC[C@H]2CCN(c3ccc(-c4c(C)cc(C(F)(F)F)cc4O)nn3)[C@H]2C1 [Example 395, 1-[(3aR,7aR)-1-[6-[2-hydroxy-6-methyl-4-(trifluoromethyl)phenyl]pyridazin-3-yl]-3,3a,4,5,7,7a-hexahydro-2H-pyrrolo[2,3-c]pyridin-6-yl]ethanone]	6.63
O=S1(=O)CCN(c2ccc(-c3c(O)cc(Cl)cc3Cl)nn2)CC1 [Example 399, 3,5-dichloro-2-[6-(1,1-dioxo-1,4-thiazinan-4-yl)pyridazin-3-yl]phenol]	6.25
CN1CC[C@H]2OCCN(c3ccc(-c4c(O)cccc4C(F)(F)F)nn3)[C@H]2C1 [Example 402, 2-[6-[(4aS,8aR)-6-methyl-3,4a,5,7,8,8a-hexahydro-2H-pyrido[4,3-b][1,4]oxazin-4-yl]pyridazin-3-yl]-3-(trifluoromethyl)phenol]	7.66
CC(=O)N1CC[C@H]2OCCN(c3ccc(-c4c(C)cccc4O)nn3)[C@H]2C1 [Example 409, 1-[(4aS,8aR)-4-[6-(2-hydroxy-6-methyl-phenyl)pyridazin-3-yl]-3,4a,5,7,8,8a-hexahydro-2H-pyrido[4,3-b][1,4]oxazin-6-yl]ethanone]	6.20

Continued, values first:

pIC50	SMILES
5.78	CNC(=O)[C@H]1CN(c2ccc(-c3c(C)cc(C)cc3O)nn2)CCO1 [Example 182, (2R)-4-[6-(2-hydroxy-4,6-dimethylphenyl)pyridazin-3-yl]-N-methylmorpholine-2-carboxamide]
6.16	Cc1cc(C)c(-c2ccc(N3CCO[C@@H](C(N)=O)C3)nn2)c(O)c1 [Example 183, (2R)-4-[6-(2-hydroxy-4,6-dimethylphenyl)pyridazin-3-yl]morpholine-2-carboxamide]
6.18	Cc1cc(C)c(-c2ccc(N3CCO[C@@H](C(=O)N(C)C)C3)nn2)c(O)c1 [Example 184, (2R)-4-[6-(2-hydroxy-4,6-dimethylphenyl)pyridazin-3-yl]-N,N-dimethylmorpholine-2-carboxamide]
5.84	Cc1cc(C)c(-c2ccc(N3CCOc4cnccc43)nn2)c(O)c1 [Example 215, 2-[6-(2,3-dihydropyrido[3,4-b][1,4]oxazin-1-yl)pyridazin-3-yl]-3,5-dimethyl-phenol]
5.67	Cc1cc(C)c(-c2ccc(N3CCCc4c3ccnc4O)nn2)c(O)c1 [Example 242, 1-[6-(2-hydroxy-4,6-dimethyl-phenyl)pyridazin-3-yl]-3,4-dihydro-2H-1,6-naphthyridin-5-ol]
5.17	Cc1cc(C)c(-c2ccc(N3CCc4cccc(O)c43)nn2)c(O)c1 [Example 253, 1-[6-(2-hydroxy-4,6-dimethyl-phenyl)pyridazin-3-yl]indolin-7-ol]
5.41	Cc1cc(C)c(-c2ccc(N3CCO[C@H](CS)C3)nn2)c(O)c1 [Example 303, 3,5-dimethyl-2-[6-[(2S)-2-(sulfanylmethyl)morpholin-4-yl]pyridazin-3-yl]phenol]
5.55	Cc1cc(C)c(-c2ccc(N3CCO[C@@H](CS)C3)nn2)c(O)c1 [Example 305, 3,5-dimethyl-2-[6-[(2R)-2-(sulfanylmethyl)morpholin-4-yl]pyridazin-3-yl]phenol]
6.30	Cc1cc(C)c(-c2ccc(N3CCO[C@H]4CCN(C)C[C@H]43)nn2)c(O)c1 [Example 310, 2-[6-[(4aR,8aS)-6-methyl-3,4a,5,7,8,8a-hexahydro-2H-pyrido[4,3-b][1,4]oxazin-4-yl]pyridazin-3-yl]-3,5-dimethyl-phenol]
6.29	Cc1cc(C)c(-c2ccc(N3CCO[C@@H]4CCNC[C@@H]43)nn2)c(O)c1 [Example 315, 2-[6-[(4aS,8aR)-2,3,4a,5,6,7,8,8a-octahydropyrido[4,3-b][1,4]oxazin-4-yl]pyridazin-3-yl]-3,5-dimethyl-phenol]
5.45	Cc1cc(C)c(-c2ccc(N3CCOc4ccncc43)nn2)c(O)c1 [Example 362, 2-[6-(2,3-dihydropyrido[4,3-b][1,4]oxazin-4-yl)pyridazin-3-yl]-3,5-dimethyl-phenol]
9.12	CCN1CC[C@H]2OCCN(c3ccc(-c4c(C)cc(C)cc4O)nn3)[C@H]2C1 [Example 404, 2-[6-[(4aS,8aR)-6-ethyl-3,4a,5,7,8,8a-hexahydro-2H-pyrido[4,3-b][1,4]oxazin-4-yl]pyridazin-3-yl]-3,5-dimethyl-phenol]
